The subject of the data set is CCRIS mutagenicity, Ames/micronucleus/aberration tests. The experiment in a line: CCRIS mutagenicity studies.
The mark [1] stands for this setting: Test System: AMES SALMONELLA TYPHIMURIUM, Strain/Indicator: TA98, Metabolic Activation: NONE, Method: PREINCUBATION
[2] abbreviates: Test System: AMES SALMONELLA TYPHIMURIUM, Strain/Indicator: TA100, Metabolic Activation: NONE, Method: PREINCUBATION
[3] abbreviates: Test System: AMES SALMONELLA TYPHIMURIUM, Strain/Indicator: TA1535, Metabolic Activation: NONE, Method: PREINCUBATION
Setting [4] is: Test System: AMES SALMONELLA TYPHIMURIUM, Strain/Indicator: TA1537, Metabolic Activation: NONE, Method: PREINCUBATION

The structures appear in SMILES notation. Activity calls are given as the source filed them. How the calls were made is not given here.

Regarding `CC(=O)O[C@]1(C(C)=O)CC[C@H]2[C@@H]3C[C@H](C)C4=CC(=O)CC[C@]4(C)[C@H]3CC[C@@]21C`, the mutagenic call by setting is: (Test System: AMES SALMONELLA TYPHIMURIUM, Strain/Indicator: TA97, Metabolic Activation: HAMSTER, LIVER, S-9, AROCLOR 1254 (10 OR 30%), Method: PREINCUBATION) “inactive; negative”; (Test System: AMES SALMONELLA TYPHIMURIUM, Strain/Indicator: TA97, Metabolic Activation: NONE, Method: PREINCUBATION) “inactive; negative”; (Test System: AMES SALMONELLA TYPHIMURIUM, Strain/Indicator: TA97, Metabolic Activation: RAT, LIVER, S-9, AROCLOR 1254 (10 OR 30%), Method: PREINCUBATION) “inactive; negative”; (Test System: AMES SALMONELLA TYPHIMURIUM, Strain/Indicator: TA98, Metabolic Activation: HAMSTER, LIVER, S-9, AROCLOR 1254 (10 OR 30%), Method: PREINCUBATION) “inactive; negative”; under setting [1], “inactive; negative”; (Test System: AMES SALMONELLA TYPHIMURIUM, Strain/Indicator: TA98, Metabolic Activation: NONE, Method: STANDARD PLATE) “inactive; negative”. The mutagenic call (Test System: AMES SALMONELLA TYPHIMURIUM, Strain/Indicator: TA98, Metabolic Activation: RAT, LIVER, S-9, AROCLOR 1254 (10 OR 30%), Method: PREINCUBATION) was “inactive; negative”; the mutagenic call (Test System: AMES SALMONELLA TYPHIMURIUM, Strain/Indicator: TA98, Metabolic Activation: RAT, LIVER, S-9, AROCLOR 1254, Method: STANDARD PLATE) was “inactive; negative”; the mutagenic call (Test System: AMES SALMONELLA TYPHIMURIUM, Strain/Indicator: TA100, Metabolic Activation: HAMSTER, LIVER, S-9, AROCLOR 1254 (10 OR 30%), Method: PREINCUBATION) is “inactive; negative”; the mutagenic call under setting [2] was “inactive; negative”; the mutagenic call (Test System: AMES SALMONELLA TYPHIMURIUM, Strain/Indicator: TA100, Metabolic Activation: NONE, Method: STANDARD PLATE) was “inactive; negative”; the mutagenic call (Test System: AMES SALMONELLA TYPHIMURIUM, Strain/Indicator: TA100, Metabolic Activation: RAT, LIVER, S-9, AROCLOR 1254 (10 OR 30%), Method: PREINCUBATION) was “inactive; negative”. Moreover, the mutagenic call reads like this: (Test System: AMES SALMONELLA TYPHIMURIUM, Strain/Indicator: TA100, Metabolic Activation: RAT, LIVER, S-9, AROCLOR 1254, Method: STANDARD PLATE) “inactive; negative”; (Test System: AMES SALMONELLA TYPHIMURIUM, Strain/Indicator: TA1535, Metabolic Activation: HAMSTER, LIVER, S-9, AROCLOR 1254 (10 OR 30%), Method: PREINCUBATION) “inactive; negative”; under setting [3], “inactive; negative”; (Test System: AMES SALMONELLA TYPHIMURIUM, Strain/Indicator: TA1535, Metabolic Activation: NONE, Method: STANDARD PLATE) “inactive; negative”; (Test System: AMES SALMONELLA TYPHIMURIUM, Strain/Indicator: TA1535, Metabolic Activation: RAT, LIVER, S-9, AROCLOR 1254 (10 OR 30%), Method: PREINCUBATION) “inactive; negative”; (Test System: AMES SALMONELLA TYPHIMURIUM, Strain/Indicator: TA1535, Metabolic Activation: RAT, LIVER, S-9, AROCLOR 1254, Method: STANDARD PLATE) “inactive; negative”. For the same compound, the mutagenic call (Test System: AMES SALMONELLA TYPHIMURIUM, Strain/Indicator: TA1537, Metabolic Activation: NONE, Method: STANDARD PLATE) is “inactive; negative”; the mutagenic call (Test System: AMES SALMONELLA TYPHIMURIUM, Strain/Indicator: TA1537, Metabolic Activation: RAT, LIVER, S-9, AROCLOR 1254, Method: STANDARD PLATE) is “inactive; negative”; the mutagenic call (Test System: AMES SALMONELLA TYPHIMURIUM, Strain/Indicator: TA1538, Metabolic Activation: NONE, Method: STANDARD PLATE) was “inactive; negative”; the mutagenic call (Test System: AMES SALMONELLA TYPHIMURIUM, Strain/Indicator: TA1538, Metabolic Activation: RAT, LIVER, S-9, AROCLOR 1254, Method: STANDARD PLATE) was “inactive; negative”; the mutagenic call (Test System: CHINESE HAMSTER V-79, Strain/Indicator: V-79 (HGPRT)/6-THIOGUANINE, Metabolic Activation: NONE) was “inactive; negative”; the mutagenic call (Test System: CHINESE HAMSTER V-79, Strain/Indicator: V-79 (HGPRT)/6-THIOGUANINE, Metabolic Activation: RAT, LIVER, S-9, AROCLOR 1254) is “inactive; negative”.
On to `O.O.O.O.O.O.[Cl-].[Cl-].[Ni+2]`, for which the mutagenic call (End Point: In vitro chromosomal aberrations, Test System: Chinese hamster V79 lung cells, Metabolic Activation: None) was “inactive; negative”; the mutagenic call under setting [1] was “inactive; negative”; the mutagenic call (Test System: AMES SALMONELLA TYPHIMURIUM, Strain/Indicator: TA98, Metabolic Activation: RAT LIVER S-9, PHENOBARBITAL AND BETA-NAPHTHOFLAVONE, Method: PREINCUBATION) is “inactive; negative”; the mutagenic call under setting [2] was “inactive; negative”; the mutagenic call (Test System: AMES SALMONELLA TYPHIMURIUM, Strain/Indicator: TA100, Metabolic Activation: RAT LIVER S-9, PHENOBARBITAL AND BETA-NAPHTHOFLAVONE, Method: PREINCUBATION) was “inactive; negative”; the mutagenic call under setting [3] was “inactive; negative”. Moreover, the mutagenic call (Test System: AMES SALMONELLA TYPHIMURIUM, Strain/Indicator: TA1535, Metabolic Activation: RAT LIVER S-9, PHENOBARBITAL AND BETA-NAPHTHOFLAVONE, Method: PREINCUBATION) is “inactive; negative”; the mutagenic call under setting [4] is “inactive; negative”; the mutagenic call (Test System: AMES SALMONELLA TYPHIMURIUM, Strain/Indicator: TA1537, Metabolic Activation: RAT LIVER S-9, PHENOBARBITAL AND BETA-NAPHTHOFLAVONE, Method: PREINCUBATION) was “inactive; negative”; the mutagenic call (Test System: AMES SALMONELLA TYPHIMURIUM, Strain/Indicator: TA1538, Metabolic Activation: NONE, Method: PREINCUBATION) is “inactive; negative”; the mutagenic call (Test System: AMES SALMONELLA TYPHIMURIUM, Strain/Indicator: TA1538, Metabolic Activation: RAT LIVER S-9, PHENOBARBITAL AND BETA-NAPHTHOFLAVONE, Method: PREINCUBATION) is “inactive; negative”; the mutagenic call (Test System: CHINESE HAMSTER V-79, Strain/Indicator: V-79/(HGPRT), Metabolic Activation: NONE) was “active; positive”. The mutagenic call was “inactive; negative” (Test System: E.COLI, Strain/Indicator: WP2UVRA, Metabolic Activation: NONE, Method: PREINCUBATION) and “inactive; negative” (Test System: E.COLI, Strain/Indicator: WP2UVRA, Metabolic Activation: RAT LIVER S-9, PHENOBARBITAL AND BETA-NAPHTHOFLAVONE, Method: PREINCUBATION).
With `CC(=O)/C=C/c1ccc2c(c1)OCO2`, the mutagenic call (Test System: AMES SALMONELLA TYPHIMURIUM, Strain/Indicator: TA98, Metabolic Activation: HAMSTER, LIVER, S-9, AROCLOR 1254 (10%), Method: PREINCUBATION) is “inactive; negative”; the mutagenic call under setting [1] is “inactive; negative”; the mutagenic call (Test System: AMES SALMONELLA TYPHIMURIUM, Strain/Indicator: TA98, Metabolic Activation: RAT, LIVER, S-9, AROCLOR 1254 (10%), Method: PREINCUBATION) is “inactive; negative”; the mutagenic call (Test System: AMES SALMONELLA TYPHIMURIUM, Strain/Indicator: TA100, Metabolic Activation: HAMSTER, LIVER, S-9, AROCLOR 1254 (10%), Method: PREINCUBATION) was “inactive; negative”; the mutagenic call under setting [2] was “inactive; negative”; the mutagenic call (Test System: AMES SALMONELLA TYPHIMURIUM, Strain/Indicator: TA100, Metabolic Activation: RAT, LIVER, S-9, AROCLOR 1254 (10%), Method: PREINCUBATION) was “inactive; negative”. In addition, the mutagenic call by setting is: (Test System: AMES SALMONELLA TYPHIMURIUM, Strain/Indicator: TA1535, Metabolic Activation: HAMSTER, LIVER, S-9, AROCLOR 1254 (10%), Method: PREINCUBATION) “inactive; negative”; under setting [3], “inactive; negative”; (Test System: AMES SALMONELLA TYPHIMURIUM, Strain/Indicator: TA1535, Metabolic Activation: RAT, LIVER, S-9, AROCLOR 1254 (10%), Method: PREINCUBATION) “inactive; negative”; (Test System: AMES SALMONELLA TYPHIMURIUM, Strain/Indicator: TA1537, Metabolic Activation: HAMSTER, LIVER, S-9, AROCLOR 1254 (10%), Method: PREINCUBATION) “inactive; negative”; under setting [4], “inactive; negative”; (Test System: AMES SALMONELLA TYPHIMURIUM, Strain/Indicator: TA1537, Metabolic Activation: RAT, LIVER, S-9, AROCLOR 1254 (10%), Method: PREINCUBATION) “inactive; negative”.

(Values after PubChem BioAssay AID1259407 (Chemical Carcinogenesis Research Information System (CCRIS), 2018).)
